Results reported in patent publication US10072001B2, “Tank-binding kinase inhibitor compounds” (Gilead Sciences, Inc., priority 2014, dated 2018).

Tests used:
IKKε = IKKε (Homo sapiens (Human), UniProt Q14164); test: TR-FRET kinase assay, IKKε; format: biochemical; details: full length recombinant IKKε 0.3 nM, 2x Km ATP, 1 μM peptide, 240 min at 25° C.; geometric mean of minimum four determinations
From the text: Biological Assay for TBK1 and IKKs:

TBK1 = TBK1 (Homo sapiens (Human), UniProt Q9UHD2); test: TR-FRET kinase assay, TBK1; details: read-out: TBK1-IC50; full length recombinant TBK1 2.5 nM, 2x Km ATP, 1 μM peptide, 240 min at 25° C.; geometric mean of minimum four determinations
Sequence of TBK1 (Q9UHD2 whole entry): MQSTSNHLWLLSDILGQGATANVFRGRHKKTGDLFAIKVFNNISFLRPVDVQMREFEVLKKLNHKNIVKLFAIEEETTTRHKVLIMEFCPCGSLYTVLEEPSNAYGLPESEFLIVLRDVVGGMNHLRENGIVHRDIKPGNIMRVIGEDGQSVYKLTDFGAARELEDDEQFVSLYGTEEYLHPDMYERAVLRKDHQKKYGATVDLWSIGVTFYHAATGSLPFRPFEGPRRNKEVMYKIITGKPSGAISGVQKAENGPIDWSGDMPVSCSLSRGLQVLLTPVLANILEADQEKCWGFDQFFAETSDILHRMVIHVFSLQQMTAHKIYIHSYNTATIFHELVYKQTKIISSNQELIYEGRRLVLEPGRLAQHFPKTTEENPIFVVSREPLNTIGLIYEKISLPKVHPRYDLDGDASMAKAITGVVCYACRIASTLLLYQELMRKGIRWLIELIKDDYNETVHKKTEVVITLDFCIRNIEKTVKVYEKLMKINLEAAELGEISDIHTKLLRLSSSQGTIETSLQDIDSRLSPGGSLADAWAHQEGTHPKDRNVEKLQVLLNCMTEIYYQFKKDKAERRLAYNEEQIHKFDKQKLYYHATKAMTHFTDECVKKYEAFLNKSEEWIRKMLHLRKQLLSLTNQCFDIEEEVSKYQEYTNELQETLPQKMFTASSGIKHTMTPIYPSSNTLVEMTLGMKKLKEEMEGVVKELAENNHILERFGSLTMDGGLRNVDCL

Sequence of IKKε (Q14164 whole entry): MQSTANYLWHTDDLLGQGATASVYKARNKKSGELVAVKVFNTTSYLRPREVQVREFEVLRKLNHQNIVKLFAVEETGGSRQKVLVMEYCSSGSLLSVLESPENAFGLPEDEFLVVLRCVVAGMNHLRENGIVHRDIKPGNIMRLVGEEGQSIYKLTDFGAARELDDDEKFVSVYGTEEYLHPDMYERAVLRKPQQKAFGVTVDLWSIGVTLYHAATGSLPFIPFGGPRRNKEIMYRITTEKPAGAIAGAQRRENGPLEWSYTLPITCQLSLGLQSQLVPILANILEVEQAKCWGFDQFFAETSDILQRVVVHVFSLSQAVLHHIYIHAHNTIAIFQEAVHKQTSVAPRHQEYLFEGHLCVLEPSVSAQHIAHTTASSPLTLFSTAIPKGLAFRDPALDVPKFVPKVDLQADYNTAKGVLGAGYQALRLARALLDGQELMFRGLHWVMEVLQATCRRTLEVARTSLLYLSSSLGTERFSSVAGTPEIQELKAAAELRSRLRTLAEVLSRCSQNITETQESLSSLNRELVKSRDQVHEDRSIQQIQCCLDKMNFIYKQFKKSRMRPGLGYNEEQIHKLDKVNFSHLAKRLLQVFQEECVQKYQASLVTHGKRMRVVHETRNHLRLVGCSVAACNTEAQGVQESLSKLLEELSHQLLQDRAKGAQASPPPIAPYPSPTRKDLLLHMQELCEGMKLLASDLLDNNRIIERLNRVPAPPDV

Compound	IC50 (IKKε) [nM]	IC50 (TBK1) [nM]
N#Cc1cc(-c2ccnc3[nH]c(-c4ccc(N5CCOCC5)cc4)cc23)ccc1OC1COC1 [Example 235, 5-(2-(4-morpholinophenyl)-1H-pyrrolo[2,3-b]pyridin-4-yl)-2-(oxetan-3-yloxy)benzonitrile]	103	9.27
Cc1ncc(-c2cc3c(-c4ccc(OC5CCOCC5)c(C#N)c4)ncnc3[nH]2)s1 [Example 190, 5-(6-(2-methylthiazol-5-yl)-7H-pyrrolo[2,3-d]pyrimidin-4-yl)-2-((tetrahydro-2H-pyran-4-yl)oxy)benzonitrile]	14.1	7.91
COc1cc(-c2cc3c(-c4ccc(OC5CCOCC5)c(C#N)c4)ncnc3[nH]2)ccc1N1CCN(S(C)(=O)=O)CC1 [Example 135, 5-(6-(3-methoxy-4-(4-(methylsulfonyl)piperazin-1-yl)phenyl)-7H-pyrrolo[2,3-d]pyrimidin-4-yl)-2-((tetrahydro-2H-pyran-4-yl)oxy)benzonitrile]	7.37	2.28
N#Cc1cc(-c2ncnc3[nH]c(-c4ccc(OCCN5CCCC5)cc4)cc23)ccc1OC1CCN(C(=O)CO)CC1 [Example 229, 2-((1-(2-hydroxyacetyl)piperidin-4-yl)oxy)-5-(6-(4-(2-(pyrrolidin-1-yl)ethoxy)phenyl)-7H-pyrrolo[2,3-d]pyrimidin-4-yl)benzonitrile]	0.851	1.01
Cc1ccc(-c2ccnc3[nH]c(-c4ccc(N5CCOCC5)cc4)cc23)cc1C#N [Example 69, 2-methyl-5-(2-(4-morpholinophenyl)-1H-pyrrolo[2,3-b]pyridin-4-yl)benzonitrile]	> 1000	79.7
CN1CCN(c2ccc(-c3nc4c(-c5ccc(OC6CCOCC6)c(C#N)c5)ccnc4[nH]3)cc2)CC1 [Example 306, 5-(2-(4-(4-methylpiperazin-1-yl)phenyl)-3H-imidazo[4,5-b]pyridin-7-yl)-2-((tetrahydro-2H-pyran-4-yl)oxy)benzonitrile]	1.21	1.85
N#Cc1cc(-c2ncnc3[nH]c(-c4ccc(CN5CCOCC5)cc4)nc23)ccc1OC1CCN(C(=O)C(F)F)CC1 [Example 266, 2-((1-(2,2-difluoroacetyl)piperidin-4-yl)oxy)-5-(8-(4-(morpholinomethyl)phenyl)-9H-purin-6-yl)benzonitrile]	7.95	8.87
N#Cc1cc(-c2ccnc3[nH]c(C4CC4)cc23)ccc1OC1CCOCC1 [Example 50, 5-(2-cyclopropyl-1H-pyrrolo[2,3-b]pyridin-4-yl)-2-((tetrahydro-2H-pyran-4-yl)oxy)benzonitrile]	449	651
N#Cc1cc(-c2ccnc3[nH]c(-c4ccc(N5CCOCC5)cc4)cc23)ncc1OC1CCOCC1 [Example 26, 2-(2-(4-morpholinophenyl)-1H-pyrrolo[2,3-b]pyridin-4-yl)-5-((tetrahydro-2H-pyran-4-yl)oxy)isonicotinonitrile]	6.84	3.43
N#Cc1cc(-c2cc3c(-c4ccc(OC5CCOCC5)c(C#N)c4)ccnc3[nH]2)ccc1OC1CCOCC1 [Example 62, 5,5′-(1H-pyrrolo[2,3-b]pyridine-2,4-diyl)bis(2-((tetrahydro-2H-pyran-4-yl)oxy)benzonitrile)]	25.3	24.1
COc1cc(-c2cc3c(-c4ccc(O[C@H]5CCN(C(=O)CO)C[C@H]5F)c(C#N)c4)ncnc3[nH]2)ccc1N1CCN(C2COC2)CC1 [Example 145, 2-(((3R,4S)-3-fluoro-1-(2-hydroxyacetyl)piperidin-4-yl)oxy)-5-(6-(3-methoxy-4-(4-(oxetan-3-yl)piperazin-1-yl)phenyl)-7H-pyrrolo[2,3-d]pyrimidin-4-yl)benzonitrile]	0.481	1.05
N#Cc1cc(-c2ncnc3[nH]c(-c4ccc(N5CCOCC5)nc4)nc23)ccc1OC1CCOCC1 [Example 243, 5-(8-(6-morpholinopyridin-3-yl)-9H-purin-6-yl)-2-((tetrahydro-2H-pyran-4-yl)oxy)benzonitrile]	1000	11.6
